Results from patent US10100042B2, “[5,6]—fused bicyclic antidiabetic compounds” (Merck Sharp & Dohme Corp., priority 2014, dated 2018).

How the values were obtained:
Type in all cases: cell-based
[1] = molecular target: T1, human GPR40 (Homo sapiens (Human), UniProt O14842); assay: FLIPR assay, agonist-induced calcium mobilization in GPR40/CHO NFAT BLA cells
Protocol: (§1) Human and mouse GPR40 stable cell-lines were generated in CHO cells stably expressing NFAT BLA (Beta-lactamase). A human GPR40 stable cell-line was generated in HEK cells stably expressing the aequorin expressing reporter. The expression plasmids were transfected using lipofectamine (Life Technologies) following manufacturer's instructions. Stable cell-lines were generated following drug selection.
FLIPR (Fluorimetric Imaging Plate Reader, Molecular Devices) assays were performed to measure agonist-induced calcium mobilization of the stable clones. For the FLIPR assay, one day before assay, GPR40/CHO NFAT BLA cells were seeded into black-wall-clear-bottom 384-well plates (Costar) at 1.4×10e4 cells/20 μL medium/well. The cells were incubated with 20 μl/well of the assay buffer (HBSS, 0.1% BSA, 20 mM HEPES, 2.5 mM probenecid, pH 7.4) containing 8 μM fluo-4, AM, 0.08% pluronic acid at room temperature for 100 minutes. Fluorescence output was measured using FLIPR. Compounds were dissolved in DMSO and diluted to desired concentrations with assay buffer. 13.3 μL/well of compound solution was added.

[2] = molecular target: T1, human GPR40; assay: Inositol Phosphate Turnover (IP1) Assay 2 in HEK cells stably expressing human GPR40; details: compound acoustically transferred
Protocol: as §1
(§2) The assay is performed in 384-well format. HEK cells stably expressing human GPR40 are plated at 15,000 cells per well in growth medium (DMEM/10% fetal calf serum). Cell plates are then incubated 16 hours at 37 degrees in a 5% CO2 incubator.
Measurement of Inositol Phosphate Turnover (IP1) is performed using the CisBio IP-One kit (Part number 62IPAPEB). After the 16 hour incubation, the cells are washed with HEPES buffer and 10 ul of stimulation buffer (prepared as described in the kit) is added to each well. In a separate plate, compounds are diluted in DMSO (400-fold over the final concentration in the assay well) and 25 nl is acoustically transferred to the appropriate well in the assay cell plate. The plates are then incubated for 60 minutes at 37 degrees. […] The plates are then read in a Perkin Elmer EnVision or equivalent reader able to measure FRET. […]

[3] = molecular target: T1, human GPR40; assay: Inositol Phosphate Turnover (IP1) Assay 1 in HEK cells stably expressing human GPR40; details: compound transferred via pocket tip
Protocol: as §1, §2
Measurement of Inositol Phosphate Turnover (IP1) is performed using the CisBio IP-One kit (Part number 62IPAPEB). After the 16 hour incubation, the cells are washed with HEPES buffer and 10 ul of stimulation buffer (prepared as described in the kit) is added to each well. In a separate plate, compounds are diluted in DMSO (400-fold over the final concentration in the assay well) and 25 nl is transferred via pocket tip to the appropriate well in the assay cell plate. The plates are then incubated for 60 minutes at 37 degrees. 10 ul of detection buffer (also prepared as described in the IP-One kit) is added to each well and the plates are incubated for 60 minutes in the dark. The plates are then read in a Perkin Elmer EnVision or equivalent reader able to measure FRET. Fluorescent ratio of emission at 665 and 620 nm is then converted to IP1 concentration by back calculating from an IP1 standard curve prepared at the time of the assay.

T1 sequence (O14842 whole entry): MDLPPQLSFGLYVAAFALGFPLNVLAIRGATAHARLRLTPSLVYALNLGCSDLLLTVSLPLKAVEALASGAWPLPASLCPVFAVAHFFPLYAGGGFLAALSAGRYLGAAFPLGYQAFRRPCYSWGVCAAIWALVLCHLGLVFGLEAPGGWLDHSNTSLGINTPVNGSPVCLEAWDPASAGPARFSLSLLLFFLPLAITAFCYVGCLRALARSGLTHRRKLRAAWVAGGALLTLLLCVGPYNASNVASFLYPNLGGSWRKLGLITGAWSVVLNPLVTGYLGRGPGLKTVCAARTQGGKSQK

`Cc1cccc(C)c1-c1cccc(C2Cc3cc(CCC(=O)O)ccc3O2)c1` (racemic) [Example 18] gave an EC50 [1] of 1220 nM.

`COc1cc(-c2ccc(CC3Cc4ccc([C@H](C5CC5)[C@H](C)C(=O)O)cc4O3)c(F)c2)ccn1` (single isomer, unassigned) [Example 5] was tested, and the EC50 [2] was 35 nM.

With `COc1cc(-c2ccc(CC3Cc4ccc([C@H](C5CC5)[C@H](C)C(=O)O)cc4O3)c(F)c2)ccn1` (single isomer, unassigned) [Example 6] the EC50 [2] was 37 nM.

Molecule `COc1cc(C)c(-c2cccc(C3Cc4cc(CCC(=O)O)ccc4O3)c2)c(C)c1` (single isomer, unassigned) [Example 16] has an EC50 [1] of 624 nM and an EC50 [3] of 5870 nM.

`COc1cc(C)c(-c2cccc(C3Cc4cc(CCC(=O)O)ccc4O3)c2)c(C)c1` (single isomer, unassigned) [Example 17] showed an EC50 [1] of 4320 nM and an EC50 [3] of 3940 nM.

`COc1ccc(F)c(-c2ccc(-c3cc4ccc([C@H](C5CC5)[C@H](C)C(=O)O)cc4o3)cc2)c1` [Example 1, (2S,3R)-3-cyclopropyl-3-(2-(2′-fluoro-5′-methoxy-[1,1′-biphenyl]-4-yl)benzofuran-6-yl)-2-methylpropanoic acid] was tested, and the EC50 [3] was 66 nM.

`COc1ccc(F)c(-c2ccc(-c3cc4ccc([C@@H](CC(=O)O)C5CC5)cc4o3)nc2)c1` [Example 2] showed an EC50 [3] of 215 nM.

`COc1ccc(F)c(-c2ccc(C3Cc4ccc([C@H](C5CC5)[C@H](C)C(=O)O)cc4O3)cc2)c1` (stereo partly drawn) [Example 3, (2S,3R)-3-cyclopropyl-3-(2-(2′-fluoro-5′-methoxy-[1,1′-biphenyl]-4-yl)-2,3-dihydrobenzofuran-6-yl)-2-methylpropanoic acid] was tested, and the EC50 [3] was 105 nM.

In the case of `COc1ccc(F)c(-c2ccc(C3Cc4ccc([C@@H](CC(=O)O)C5CC5)cc4O3)nc2)c1` (some centres unmarked) [Example 4], the EC50 [3] is reported as 311 nM.

With `Cc1cccc(C)c1-c1cccc(-c2cc3cc(CCC(=O)O)ccc3o2)c1` [Example 7, 3-(2-(2′,6′-dimethyl-[1,1′-biphenyl]-3-yl)benzofuran-5-yl)propanoic acid] the EC50 [1] was 203 nM and the EC50 [3] was 3220 nM.

For `O=C(O)CCc1ccc2oc(-c3ccc(C(F)(F)F)cc3)cc2c1` [Example 8], the EC50 [1] was 20900 nM.

`COc1cc(C)c(-c2cccc(-c3cc4cc(CCC(=O)O)ccc4o3)c2)cc1F` [Example 9] showed an EC50 [1] of 815 nM and an EC50 [3] of 3690 nM.

In the case of `COc1cc(C)c(-c2cccc(-c3cc4cc(CCC(=O)O)ccc4o3)c2)c(C)c1` [Example 10], the EC50 [1] is reported as 540 nM.

In the case of `COc1c(F)cc(-c2cccc(-c3cc4cc(CCC(=O)O)ccc4o3)c2)c(Cl)c1F` [Example 11], the EC50 [1] is reported as 1190 nM and the EC50 [3] is reported as 4580 nM.

With `Cc1cc(C)c(-c2cccc(-c3cc4cc(CCC(=O)O)ccc4o3)c2)c(F)c1` [Example 12] the EC50 [1] was 716 nM and the EC50 [3] was over 10000 nM.

For `Cc1cc(F)cc(C)c1-c1cccc(-c2cc3cc(CCC(=O)O)ccc3o2)c1` [Example 13], the EC50 [1] was 306 nM and the EC50 [3] was 6210 nM.

Work on `O=C(O)CCc1ccc2oc(-c3cccc(-c4c(Cl)cccc4Cl)c3)cc2c1` [Example 14] yielded an EC50 [1] of 726 nM and an EC50 [3] of over 10000 nM.

`COc1cc(C)c(-c2cccc(C3Cc4cc(CCC(=O)O)ccc4O3)c2)c(C)c1` (centres unmarked) [Example 15] was tested, and the EC50 [1] was 1490 nM.
